pIC50: −log10 of the molar value.
These compounds were tested against T1, human RORγt (Ligand Binding Domain) (Homo sapiens, UniProt P51449) (assay: Fluorescence Polarization (FP) Assay). Details: 100 nM human RORγt LBD, 25 nM TAMRA probe, values are activity range bounds.
T1 construct: purchased Crelux (Planegg, Germany) batch no PC5032-1
T1 sequence (P51449 269-508 limits assumed): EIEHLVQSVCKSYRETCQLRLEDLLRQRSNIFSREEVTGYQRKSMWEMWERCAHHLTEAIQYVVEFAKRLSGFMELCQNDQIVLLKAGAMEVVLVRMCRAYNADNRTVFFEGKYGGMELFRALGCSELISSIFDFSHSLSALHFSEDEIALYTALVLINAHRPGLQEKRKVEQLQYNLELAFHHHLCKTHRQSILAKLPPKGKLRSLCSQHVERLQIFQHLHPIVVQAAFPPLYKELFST
Method: The activity of the compounds was evaluated using a Fluorescence Polarization (FP) Assay and, RORγ Reporter assay (also referred to as Gal4 assay). The FP assay is an in vitro assay monitoring binding within the ligand binding pocket. The RORγ and the Th17 assays (another suitable assay) are both cell-based assays monitoring functional activity of the compound assayed.
Fluorescence Polarization (FP) Assay
The total volume was 25 μl, in a black Perkin Elmer OptiPlate. As negative control, 1 μl DMSO was used. […] The probe is a fluorescently labeled (TAMRA) RORγt ligand identified by Nuevolution with a total molecular weight of 910 g/mole as shown in Graph A in FIG. 1.
In the case of `NC(=O)Cc1ccc(CNc2ncnc(N(Cc3cccc(-c4cccnc4)c3)C3CC3)c2F)cc1` [Example A130, 2-[4-[[[6-[cyclopropyl-[[3-(3-pyridyl)phenyl]methyl]amino]-5-fluoro-pyrimidin-4-yl]amino]methyl]phenyl]acetamide], the pIC50 was > 6.30.
For `CC(c1cccc2ccccc12)N(C)c1ncnc(NCc2ccc(CC(N)=O)cc2)c1F` (centres unmarked) [Example A131, 2-[4-[[[5-fluoro-6-[methyl-[1-(1-naphthyl)ethyl]amino]pyrimidin-4-yl]amino]methyl]phenyl]acetamide], the pIC50 was > 6.30.
`CN(Cc1ccc(-n2cccn2)cc1)c1ncnc(NCC2(CCO)CCOCC2)c1F` [Example A132, 2-[4-[[[5-fluoro-6-[methyl-[(4-pyrazol-1-ylphenyl)methyl]amino]pyrimidin-4-yl]amino]methyl]tetrahydropyran-4-yl]ethanol] was tested, and the pIC50 was > 5.00.
For `CN(Cc1ccc(-n2cccn2)cc1)c1ncnc(NCC2(CS(C)(=O)=O)CCOCC2)c1F` [Example A133, 5-fluoro-N6-methyl-N4-[[4-(methylsulfonylmethyl)tetrahydro-pyran-4-yl]methyl]-N6-[(4-pyrazol-1-ylphenyl)methyl]pyrimidine-4,6-diamine], the pIC50 was > 5.70.
With `CN(Cc1ccc(-n2cccn2)cc1)c1ncnc(NCc2ccc(-c3nnn[nH]3)cc2)c1F` [Example A134, 5-fluoro-N6-methyl-N6-[(4-pyrazol-1-ylphenyl)methyl]-N4-[[4-(1H-tetrazol-5-yl)phenyl]methyl]pyrimidine-4,6-diamine] the pIC50 was > 5.70.
`CN(Cc1ccc(-n2cccn2)cc1)c1ncnc(NCc2ccc(S(N)(=O)=O)cc2)c1F` [Example A135, 4-[[[5-fluoro-6-[methyl-[(4-pyrazol-1-ylphenyl)methyl]amino]pyrimidin-4-yl]amino]methyl]benzenesulfonamide] was tested, and the pIC50 was > 5.00.
In the case of `COCCNS(=O)(=O)c1ccc(CNc2ncnc(N(C)Cc3ccc(-n4cccn4)cc3)c2F)cc1` [Example A136, 4-[[[5-fluoro-6-[methyl-[(4-pyrazol-1-ylphenyl)methyl]amino]pyrimidin-4-yl]amino]methyl]-N-(2-methoxyethyl)benzenesulfonamide], the pIC50 was > 5.70.
With `CN(Cc1ccc(-n2cccn2)cc1)c1ncnc(NCc2ccc(S(=O)(=O)O)cc2)c1F` [Example A137, 4-[[[5-fluoro-6-[methyl-[(4-pyrazol-1-ylphenyl)methyl]amino]pyrimidin-4-yl]amino]methyl]benzenesulfonic acid] the pIC50 was > 6.30.
With `COc1ccc(CN(C)c2ncnc(NCc3ccc(CC(N)=O)cc3)c2F)c(OC)c1` [Example A139, 2-[4-[[[6-[(2,4-dimethoxyphenyl)methyl-methyl-amino]-5-fluoro-pyrimidin-4-yl]amino]methyl]phenyl]acetamide] the pIC50 was > 5.70.
With `CN(Cc1cccc(-n2cccn2)c1)c1ncnc(NCC2(O)CCS(=O)(=O)CC2)c1F` [Example A140, 4-[[[5-fluoro-6-[methyl-[(3-pyrazol-1-ylphenyl)methyl]amino]pyrimidin-4-yl]amino]methyl]-1,1-dioxo-thian-4-ol] the pIC50 was > 5.00.
With `CN(Cc1cccc(-n2cccn2)c1)c1ncnc(NCC2CCOCC2)c1F` [Example A141, 5-fluoro-N6-methyl-N6-[(3-pyrazol-1-ylphenyl)methyl]-N4-(tetrahydropyran-4-ylmethyl)pyrimidine-4,6-diamine] the pIC50 was > 5.70.
With `CN(Cc1cccc(-n2cccn2)c1)c1ncnc(NCc2ccc(CS(C)(=O)=O)cc2)c1F` [Example A144, 5-fluoro-N6-methyl-N4-[[4-(methylsulfonylmethyl)phenyl]methyl]-N6-[(3-pyrazol-1-ylphenyl)methyl]pyrimidine-4,6-diamine] the pIC50 was > 5.00.
`CN1CCC(NC(=O)CC2(CNc3ncnc(N(Cc4ccc(C(F)(F)F)cc4)C4CC4)c3F)CCOCC2)C1` (centres unmarked) [Example A152, 2-[4-[[[6-[cyclopropyl-[[4-(trifluoromethyl)phenyl]methyl]amino]-5-fluoro-pyrimidin-4-yl]amino]methyl]tetrahydropyran-4-yl]-N-(1-methylpyrrolidin-3-yl)acetamide] was tested, and the pIC50 was > 5.00.
In the case of `CN(C)CCCNC(=O)CC1(CNc2ncnc(N(Cc3ccc(C(F)(F)F)cc3)C3CC3)c2F)CCOCC1` [Example A153, 2-[4-[[[6-[cyclopropyl-[[4-(trifluoromethyl)phenyl]methyl]amino]-5-fluoro-pyrimidin-4-yl]amino]methyl]tetrahydropyran-4-yl]-N-[3-(dimethylamino)propyl]acetamide], the pIC50 was > 5.00.
With `O=C(O)CNC(=O)CC1(CNc2ncnc(N(Cc3ccc(C(F)(F)F)cc3)C3CC3)c2F)CCOCC1` [Example A154, 2-[[2-[4-[[[6-[cyclopropyl-[[4-(trifluoromethyl)phenyl]methyl]amino]-5-fluoro-pyrimidin-4-yl]amino]methyl]tetrahydropyran-4-yl]acetyl]amino]acetic acid] the pIC50 was > 5.70.
`O=C(O)CCNC(=O)CC1(CNc2ncnc(N(Cc3ccc(C(F)(F)F)cc3)C3CC3)c2F)CCOCC1` [Example A155, 3-[[2-[4-[[[6-[cyclopropyl-[[4-(trifluoromethyl)phenyl]methyl]amino]-5-fluoro-pyrimidin-4-yl]amino]methyl]tetrahydropyran-4-yl]acetyl]amino]propanoic acid] was tested, and the pIC50 was > 6.00.
`COc1cc(CN(c2ncnc(NCc3ccc(CC(N)=O)cc3)c2F)C2CC2)ccc1Cl` [Example A156, 2-[4-[[[6-[(4-chloro-3-methoxy-phenyl)methyl-cyclopropyl-amino]-5-fluoro-pyrimidin-4-yl]amino]methyl]phenyl]acetamide] was tested, and the pIC50 was > 6.30.
For `Cc1ccc(CNc2ncnc(N(Cc3ccc(C(F)(F)F)cc3)C3CC3)c2F)nn1` [Example A157, N4-cyclopropyl-5-fluoro-N6-[(6-methylpyridazin-3-yl)methyl]-N4-[[4-(trifluoromethyl)phenyl]methyl] pyrimidine-4,6-diamine], the pIC50 was > 6.30.
With `CS(=O)(=O)N1CCC(CNc2ncnc(N(Cc3ccc(C(F)(F)F)cc3)C3CC3)c2F)C1` (centres unmarked) [Example A158, N4-cyclopropyl-5-fluoro-N6-[(1-methylsulfonylpyrrolidin-3-yl)methyl]-N4-[[4-(trifluoromethyl)phenyl]methyl] pyrimidine-4,6-diamine] the pIC50 was > 6.30.
For `Cc1cnc(CNc2ncnc(N(Cc3ccc(C(F)(F)F)cc3)C3CC3)c2F)cn1` [Example A159, N4-cyclopropyl-5-fluoro-N6-[(5-methylpyrazin-2-yl)methyl]-N4-[[4-(trifluoromethyl)phenyl]methyl] pyrimidine-4,6-diamine], the pIC50 was > 6.30.
`CS(=O)(=O)N1CC(CNc2ncnc(N(Cc3ccc(C(F)(F)F)cc3)C3CC3)c2F)C1` [Example A160, N4-cyclopropyl-5-fluoro-N6-[(1-methylsulfonylazetidin-3-yl)methyl]-N4-[[4-(trifluoromethyl)phenyl]methyl] pyrimidine-4,6-diamine] was tested, and the pIC50 was > 6.30.
For `NC(=O)Cc1ccc(CNc2ncnc(N(Cc3cccc(-n4cncn4)c3)C3CC3)c2F)cc1` [Example A161, 2-[4-[[[6-[cyclopropyl-[[3-(1,2,4-triazol-1-yl)phenyl]methyl]amino]-5-fluoro-pyrimidin-4-yl]amino]methyl]phenyl]acetamide], the pIC50 was > 6.30.
With `NC(=O)Cc1ccc(CNc2ncnc(N(Cc3ccc4c(c3)OCC(=O)N4)C3CC3)c2F)cc1` [Example A162, 2-[4-[[[6-[cyclopropyl-[(3-oxo-4H-1,4-benzoxazin-7-yl)methyl]amino]-5-fluoro-pyrimidin-4-yl]amino]methyl]phenyl]acetamide] the pIC50 was > 6.30.
With `N#Cc1cccc(CN(c2ncnc(NCc3ccc(CC(N)=O)cc3)c2F)C2CC2)c1` [Example A163, 2-[4-[[[6-[(3-cyanophenyl)methyl-cyclopropyl-amino]-5-fluoro-pyrimidin-4-yl]amino]methyl]phenyl]acetamide] the pIC50 was > 6.30.
In the case of `CS(=O)(=O)N1CCC(CNc2ncnc(N(Cc3ccc(C(F)(F)F)cn3)C3CC3)c2F)C1` (centres unmarked) [Example A166, N6-cyclopropyl-5-fluoro-N4-[(1-methylsulfonylpyrrolidin-3-yl)methyl]-N6-[[5-(trifluoromethyl)-2-pyridyl]methyl]pyrimidine-4,6-diamine], the pIC50 was > 5.00.
`CS(=O)(=O)N1CC(CNc2ncnc(N(Cc3ccc(C(F)(F)F)cn3)C3CC3)c2F)C1` [Example A173, N4-cyclopropyl-5-fluoro-N6-[(1-methylsulfonylazetidin-3-yl)methyl]-N4-[[5-(trifluoromethyl)-2-pyridyl]methyl]pyrimidine-4,6-diamine] was tested, and the pIC50 was > 5.00.
In the case of `NC(=O)Cc1ccc(CNc2ncnc(N(Cc3ccc(C(F)(F)F)cc3)C3CC3)c2F)nc1` [Example A177, 2-[6-[[[6-[cyclopropyl-[[4-(trifluoromethyl)phenyl]methyl]amino]-5-fluoro-pyrimidin-4-yl]amino]methyl]-3-pyridyl]acetamide], the pIC50 was > 5.70.
`Cc1cc(CN(c2ncnc(NCC3CCN(S(C)(=O)=O)CC3)c2F)C2CCCCC2)n(C)n1` [Example A180, N6-cyclohexyl-N6-[(2,5-dimethylpyrazol-3-yl)methyl]-5-fluoro-N4-[(1-methylsulfonyl-4-piperidyl)methyl]pyrimidine-4,6-diamine] was tested, and the pIC50 was > 5.00.
`O=C(O)C[C@H](Nc1ncnc(N(Cc2ccc(C(F)(F)F)cc2)C2CC2)c1F)c1ccccc1` [Example A182, (3S)-3-[[6-[cyclopropyl-[[4-(trifluoromethyl)phenyl]methyl]amino]-5-fluoro-pyrimidin-4-yl]amino]-3-phenyl-propanoic acid] was tested, and the pIC50 was > 5.00.

Source: US10683293B2, “Optionally fused heterocyclyl-substituted derivatives of pyrimidine useful for the treatment of inflammatory, metabolic, oncologic and autoimmune diseases” (NUEVOLUTION A/S, priority 2014, dated 2020)
